PMC7655540, “Accumulation of Target Gene Mutations Confers Multiple Resistance to ALS, ACCase, and EPSPS Inhibitors in Lolium Species in Chile” (Frontiers in Plant Science, 2020)
Where two headings read alike, the source gives them in different places.

How the values were obtained:
ACCase [1] = target: T1, ACCase (Lolium perenne, UniProt Z9B5O7SYH2); test: ATP-dependent incorporation of […]-bicarbonate into malonyl-CoA; type: biochemical; settings: S population; partially purified leaf extract; 5 mM acetyl-CoA, pH 8.3, 34°C; diclofop-acid per methods; read-out: I50
T1 construct: native enzyme, young leaf extract, ammonium sulfate fraction, desalted; isoforms not separated

ACCase [2] = target: T2, ACCase (Lolium multiflorum, UniProt A0AAD8WR50); test: as above; type: biochemical; settings: S population; partially purified leaf extract; 5 mM acetyl-CoA, pH 8.3, 34°C; diclofop-acid per methods; read-out: I50
T2 construct: gene QYE76_038327; native enzyme, young leaf extract, ammonium sulfate fraction, desalted; isoforms not separated

ACCase [3] = target: T1, ACCase; test: as above; type: biochemical; settings: R population extract, heterogeneous alleles; 5 mM acetyl-CoA, pH 8.3, 34°C; stated gain; read-out: I50
EPSPS = test: phosphate release, EnzCheck phosphate assay, […] nm; type: biochemical, Lolium perenne; settings: S population; partially purified leaf extract; pH 7.0; read-out: I50

T2 sequence (A0AAD8WR50 1-2320): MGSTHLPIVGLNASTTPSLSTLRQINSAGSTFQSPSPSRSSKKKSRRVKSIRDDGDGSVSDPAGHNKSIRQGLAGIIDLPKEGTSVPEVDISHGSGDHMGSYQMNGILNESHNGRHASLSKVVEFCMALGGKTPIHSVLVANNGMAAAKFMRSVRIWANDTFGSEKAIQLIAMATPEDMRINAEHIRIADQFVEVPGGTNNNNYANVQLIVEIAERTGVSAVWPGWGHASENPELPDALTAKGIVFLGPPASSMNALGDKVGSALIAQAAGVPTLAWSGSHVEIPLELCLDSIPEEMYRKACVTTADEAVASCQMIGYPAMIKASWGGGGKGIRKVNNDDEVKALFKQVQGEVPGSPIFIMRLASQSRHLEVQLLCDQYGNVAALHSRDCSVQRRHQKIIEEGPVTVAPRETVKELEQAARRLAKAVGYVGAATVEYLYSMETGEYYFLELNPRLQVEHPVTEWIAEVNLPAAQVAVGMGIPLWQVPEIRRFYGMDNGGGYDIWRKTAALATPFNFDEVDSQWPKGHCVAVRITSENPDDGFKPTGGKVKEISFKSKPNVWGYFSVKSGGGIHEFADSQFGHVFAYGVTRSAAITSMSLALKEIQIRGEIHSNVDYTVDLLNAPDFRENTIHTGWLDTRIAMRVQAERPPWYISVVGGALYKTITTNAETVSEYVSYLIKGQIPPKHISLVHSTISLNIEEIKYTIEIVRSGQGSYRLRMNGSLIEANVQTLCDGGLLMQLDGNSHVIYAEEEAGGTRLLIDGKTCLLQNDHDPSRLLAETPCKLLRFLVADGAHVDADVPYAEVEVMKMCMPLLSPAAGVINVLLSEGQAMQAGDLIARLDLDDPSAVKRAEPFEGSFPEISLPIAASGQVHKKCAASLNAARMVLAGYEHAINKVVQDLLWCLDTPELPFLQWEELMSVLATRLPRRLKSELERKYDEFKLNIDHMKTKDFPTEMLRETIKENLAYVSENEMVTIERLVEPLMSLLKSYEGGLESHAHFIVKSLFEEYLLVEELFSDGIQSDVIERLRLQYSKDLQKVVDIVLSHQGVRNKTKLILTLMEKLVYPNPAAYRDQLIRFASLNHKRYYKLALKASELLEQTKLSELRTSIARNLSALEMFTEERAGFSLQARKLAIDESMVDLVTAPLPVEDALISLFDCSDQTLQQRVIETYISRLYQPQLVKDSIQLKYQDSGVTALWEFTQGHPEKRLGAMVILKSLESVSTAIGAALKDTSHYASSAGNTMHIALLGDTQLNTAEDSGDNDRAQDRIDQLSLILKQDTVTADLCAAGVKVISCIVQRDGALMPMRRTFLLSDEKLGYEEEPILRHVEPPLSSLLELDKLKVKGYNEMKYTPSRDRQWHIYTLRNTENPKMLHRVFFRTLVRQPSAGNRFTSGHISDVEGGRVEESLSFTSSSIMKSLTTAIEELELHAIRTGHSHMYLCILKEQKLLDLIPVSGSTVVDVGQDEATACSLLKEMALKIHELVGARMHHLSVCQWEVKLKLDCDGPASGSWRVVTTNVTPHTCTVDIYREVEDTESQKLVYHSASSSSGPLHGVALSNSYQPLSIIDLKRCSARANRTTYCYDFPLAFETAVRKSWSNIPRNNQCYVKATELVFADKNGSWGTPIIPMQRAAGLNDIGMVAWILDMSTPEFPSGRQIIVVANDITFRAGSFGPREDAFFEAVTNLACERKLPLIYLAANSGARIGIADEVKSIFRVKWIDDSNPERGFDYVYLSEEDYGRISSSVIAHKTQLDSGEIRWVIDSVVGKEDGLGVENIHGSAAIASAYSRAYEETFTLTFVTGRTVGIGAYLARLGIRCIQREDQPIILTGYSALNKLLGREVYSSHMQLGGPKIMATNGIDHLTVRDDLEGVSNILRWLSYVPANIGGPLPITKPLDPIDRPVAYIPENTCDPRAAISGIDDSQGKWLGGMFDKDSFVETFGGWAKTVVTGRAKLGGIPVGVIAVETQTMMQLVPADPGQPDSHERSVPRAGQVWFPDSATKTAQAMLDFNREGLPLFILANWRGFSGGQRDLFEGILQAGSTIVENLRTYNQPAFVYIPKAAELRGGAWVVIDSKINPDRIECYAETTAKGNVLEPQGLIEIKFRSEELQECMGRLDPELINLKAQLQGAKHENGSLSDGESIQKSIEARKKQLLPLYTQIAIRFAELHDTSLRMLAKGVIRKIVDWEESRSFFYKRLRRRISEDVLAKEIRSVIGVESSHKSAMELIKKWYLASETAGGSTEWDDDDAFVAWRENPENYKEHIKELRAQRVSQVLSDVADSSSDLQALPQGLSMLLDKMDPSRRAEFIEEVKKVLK

| SMILES | IC50 (ACCase [1]) [µM] | IC50 (ACCase [2]) [µM] | IC50 (ACCase [3]) [µM] | IC50 (EPSPS) [µM] |
| --- | --- | --- | --- | --- |
| CC(Oc1ccc(Oc2ccc(Cl)cc2Cl)cc1)C(=O)O (stereo not shown) [diclofop-acid] | 6.2 | 4.6 | 68.6 |  |
| O=C(O)CNCP(=O)(O)O [glyphosate] |  |  |  | 7.8 |
